In US20050197350A1, “Novel quinoline, tetrahydroquinazoline, and pyrimidine derivatives and methods of treatment related to the use thereof” (TAISHO PHARMACEUTICAL CO., LTD., priority 2003, published 2005):

System: MCH receptors
Experiment: MCH receptor activity class (method not given)
Settings: MCH receptor; class by percent of control at 10^-7 M or IC50

| SMILES | class |
| --- | --- |
| COC(=O)c1ccc(NC(=S)N[C@H]2CC[C@@H](Nc3nc4c(c(N(C)C)n3)CCCC4)CC2)cc1 [compound 2019] | 3 (Class 3 The value of percent of control at 10^−7 M was more than 60% or the value of IC50 was more than 200 nM.) |
| Cc1ccc(NC(=S)N[C@H]2CC[C@@H](Nc3nc4c(c(N(C)C)n3)CCCC4)CC2)c([N+](=O)[O-])c1 [compound 2020] | 3 (Class 3 The value of percent of control at 10^−7 M was more than 60% or the value of IC50 was more than 200 nM.) |
| Cc1ccc(CNC(=S)N[C@H]2CC[C@@H](Nc3nc4c(c(N(C)C)n3)CCCC4)CC2)cc1 [compound 2021] | 3 (Class 3 The value of percent of control at 10^−7 M was more than 60% or the value of IC50 was more than 200 nM.) |
| CCCCc1ccc(NC(=S)N[C@H]2CC[C@@H](Nc3nc4c(c(N(C)C)n3)CCCC4)CC2)cc1 [compound 2022] | 3 (Class 3 The value of percent of control at 10^−7 M was more than 60% or the value of IC50 was more than 200 nM.) |
| COc1ccc(Cl)cc1NC(=S)N[C@H]1CC[C@@H](Nc2nc3c(c(N(C)C)n2)CCCC3)CC1 [compound 2023] | 3 (Class 3 The value of percent of control at 10^−7 M was more than 60% or the value of IC50 was more than 200 nM.) |
| CN(C)c1nc(N[C@H]2CC[C@@H](NC(=S)NC(c3ccccc3)c3ccccc3)CC2)nc2c1CCCC2 [compound 2025] | 3 (Class 3 The value of percent of control at 10^−7 M was more than 60% or the value of IC50 was more than 200 nM.) |
| CN(C)c1nc(N[C@H]2CC[C@@H](NC(=S)NC3CCCCCCCCCCC3)CC2)nc2c1CCCC2 [compound 2026] | 3 (Class 3 The value of percent of control at 10^−7 M was more than 60% or the value of IC50 was more than 200 nM.) |
| CN(C)c1nc(N[C@H]2CC[C@@H](NC(=S)NCC3CCCCC3)CC2)nc2c1CCCC2 [compound 2027] | 3 (Class 3 The value of percent of control at 10^−7 M was more than 60% or the value of IC50 was more than 200 nM.) |
| CN(C)c1nc(N[C@H]2CC[C@@H](NC(=S)NC3CC3)CC2)nc2c1CCCC2 [compound 2029] | 3 (Class 3 The value of percent of control at 10^−7 M was more than 60% or the value of IC50 was more than 200 nM.) |
| CN(C)c1nc(N[C@H]2CC[C@@H](NC(=S)NCC(c3ccccc3)c3ccccc3)CC2)nc2c1CCCC2 [compound 2030] | 2 (Class 2: The value of percent of control at 10^−7 M was from 40% to 60% or the value of IC′50 was from 50 nM to 200 nM.) |
| CN(C)c1nc(N[C@H]2CC[C@@H](NC(=S)Nc3c(Cl)c(Cl)cc(Cl)c3Cl)CC2)nc2c1CCCC2 [compound 2031, N-(cis-4-{[4-(dimethylamino)-5,6,7,8-tetrahydroquinazolin-2-yl]amino}cyelohexyl)-N′-(2,3,5,6-tetrachlorophenyl)thiourea] | 3 (Class 3 The value of percent of control at 10^−7 M was more than 60% or the value of IC50 was more than 200 nM.) |
| CN(C)c1nc(N[C@H]2CC[C@@H](NC(=S)NCc3ccc(Cl)cc3Cl)CC2)nc2c1CCCC2 [compound 2032] | 3 (Class 3 The value of percent of control at 10^−7 M was more than 60% or the value of IC50 was more than 200 nM.) |
| CN(C)c1nc(N[C@H]2CC[C@@H](NC(=S)Nc3cc(Br)ccc3Br)CC2)nc2c1CCCC2 [compound 2033] | 3 (Class 3 The value of percent of control at 10^−7 M was more than 60% or the value of IC50 was more than 200 nM.) |
| COc1ccc(OC)c(CCNC(=S)N[C@H]2CC[C@@H](Nc3nc4c(c(N(C)C)n3)CCCC4)CC2)c1 [compound 2034] | 3 (Class 3 The value of percent of control at 10^−7 M was more than 60% or the value of IC50 was more than 200 nM.) |
| CN(C)c1nc(N[C@H]2CC[C@@H](NC(=S)Nc3cc([N+](=O)[O-])ccc3Cl)CC2)nc2c1CCCC2 [compound 2035] | 3 (Class 3 The value of percent of control at 10^−7 M was more than 60% or the value of IC50 was more than 200 nM.) |
| CN(C)c1nc(N[C@H]2CC[C@@H](NC(=S)Nc3ccccc3C#N)CC2)nc2c1CCCC2 [compound 2036] | 3 (Class 3 The value of percent of control at 10^−7 M was more than 60% or the value of IC50 was more than 200 nM.) |
| CN(C)c1nc(N[C@H]2CC[C@@H](NC(=S)NCc3ccccc3F)CC2)nc2c1CCCC2 [compound 2037] | 3 (Class 3 The value of percent of control at 10^−7 M was more than 60% or the value of IC50 was more than 200 nM.) |
| CN(C)c1nc(N[C@H]2CC[C@@H](NC(=S)NC(=O)c3ccco3)CC2)nc2c1CCCC2 [compound 2038] | 3 (Class 3 The value of percent of control at 10^−7 M was more than 60% or the value of IC50 was more than 200 nM.) |
| COc1ccc([N+](=O)[O-])cc1NC(=S)N[C@H]1CC[C@@H](Nc2nc3c(c(N(C)C)n2)CCCC3)CC1 [compound 2039] | 3 (Class 3 The value of percent of control at 10^−7 M was more than 60% or the value of IC50 was more than 200 nM.) |
| Cc1ccccc1CNC(=S)N[C@H]1CC[C@@H](Nc2nc3c(c(N(C)C)n2)CCCC3)CC1 [compound 2040] | 3 (Class 3 The value of percent of control at 10^−7 M was more than 60% or the value of IC50 was more than 200 nM.) |
| COc1ccc(CNC(=S)N[C@H]2CC[C@@H](Nc3nc4c(c(N(C)C)n3)CCCC4)CC2)cc1OC [compound 2041] | 3 (Class 3 The value of percent of control at 10^−7 M was more than 60% or the value of IC50 was more than 200 nM.) |
| CCc1cccc(NC(=S)N[C@H]2CC[C@@H](Nc3nc4c(c(N(C)C)n3)CCCC4)CC2)c1 [compound 2042] | 3 (Class 3 The value of percent of control at 10^−7 M was more than 60% or the value of IC50 was more than 200 nM.) |
| CN(C)c1nc(N[C@H]2CC[C@@H](NC(=S)NCc3cccc(F)c3)CC2)nc2c1CCCC2 [compound 2043] | 3 (Class 3 The value of percent of control at 10^−7 M was more than 60% or the value of IC50 was more than 200 nM.) |
| COc1cccc(CNC(=S)N[C@H]2CC[C@@H](Nc3nc4c(c(N(C)C)n3)CCCC4)CC2)c1 [compound 2044] | 3 (Class 3 The value of percent of control at 10^−7 M was more than 60% or the value of IC50 was more than 200 nM.) |
| Cc1cccc(CNC(=S)N[C@H]2CC[C@@H](Nc3nc4c(c(N(C)C)n3)CCCC4)CC2)c1 [compound 2045] | 3 (Class 3 The value of percent of control at 10^−7 M was more than 60% or the value of IC50 was more than 200 nM.) |
| CN(C)c1nc(N[C@H]2CC[C@@H](NC(=S)Nc3ccc(Br)c(Cl)c3)CC2)nc2c1CCCC2 [compound 2046] | 3 (Class 3 The value of percent of control at 10^−7 M was more than 60% or the value of IC50 was more than 200 nM.) |
| Cc1cc(NC(=S)N[C@H]2CC[C@@H](Nc3nc4c(c(N(C)C)n3)CCCC4)CC2)ccc1Br [compound 2047] | 3 (Class 3 The value of percent of control at 10^−7 M was more than 60% or the value of IC50 was more than 200 nM.) |
| CCCCCCCCCCc1ccc(NC(=S)N[C@H]2CC[C@@H](Nc3nc4c(c(N(C)C)n3)CCCC4)CC2)cc1 [compound 2048] | 3 (Class 3 The value of percent of control at 10^−7 M was more than 60% or the value of IC50 was more than 200 nM.) |
| CN(C)c1nc(N[C@H]2CC[C@@H](NC(=S)Nc3ccc(Oc4ccc([N+](=O)[O-])cc4)cc3)CC2)nc2c1CCCC2 [compound 2049] | 3 (Class 3 The value of percent of control at 10^−7 M was more than 60% or the value of IC50 was more than 200 nM.) |
